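Protocol summary: plate cells (96-well), add compound at 5 concentrations, incubate 48 h, interpolate endpoints linearly. At the GI50, growth is halved. Definition used: TGI = concentration required for complete inhibition of growth.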
What was measured:
Assay in all cases: inhibition of tumour cell growth, NCI panel, 48 h
[1] = test system: HCT-116 colon
[2] = test system: HL-60(TB) leukemia
[3] = test system: SNB-19 CNS
[4] = test system: HS 578T breast
[5] = test system: OVCAR-4 ovarian
[6] = test system: MALME-3M melanoma
[7] = test system: MCF7 breast
[8] = test system: MOLT-4 leukemia
[9] = test system: HCC-2998 colon
[10] = test system: A498 renal
[11] = test system: EKVX NSCLC
[12] = test system: SK-MEL-5 melanoma
[13] = test system: NCI-H522 lung
[14] = test system: IGROV1 ovarian
[15] = test system: OVCAR-8 ovarian
[16] = test system: UACC-62 melanoma
[17] = test system: SR leukemia
[18] = test system: NCI-H23 lung
[19] = test system: SF-268 CNS
[20] = test system: DU-145 prostate
[21] = test system: SK-MEL-2 melanoma
[22] = test system: MDA-MB-435
[23] = test system: MDA-MB-231 breast
[24] = test system: KM12 colon
[25] = test system: UACC-257 melanoma
[26] = test system: K-562 leukemia
[27] = test system: HT29 colon
[28] = test system: SW-620 colon
[29] = test system: TK-10 renal
[30] = test system: SF-295 CNS
[31] = test system: SNB-75 CNS
[32] = test system: COLO 205 colon
[33] = test system: ACHN renal
[34] = test system: HOP-92 NSCLC
[35] = test system: SK-OV-3 ovarian
[36] = test system: OVCAR-3 ovarian
[37] = test system: U251 CNS
[38] = test system: LOX IMVI melanoma
[39] = test system: OVCAR-5 ovarian
[40] = test system: NCI-H460 lung
[41] = test system: HOP-62 NSCLC
[42] = test system: PC-3 prostate
[43] = test system: SN12C renal
[44] = test system: 786-0 renal
[45] = test system: HCT-15 colon
[46] = test system: SK-MEL-28 melanoma
[47] = test system: T-47D breast
[48] = test system: RXF 393 renal
[49] = test system: SF-539 CNS
[50] = test system: RPMI-8226 leukemia
[51] = test system: NCI/ADR-RES ovarian
[52] = test system: CCRF-CEM leukemia
[53] = test system: CAKI-1 renal
[54] = test system: A549 NSCLC
[55] = test system: M14 melanoma
[56] = test system: NCI-H226 lung
[57] = test system: UO-31 renal

Q: Which results are given for `CC/C(=C\c1ccc(Cl)c(Cl)c1)[N+](=O)[O-]`?
A: TGI [1]: > 100 µM; TGI [2]: 5.67 µM; TGI [3]: 5.7 µM; TGI [4]: > 100 µM; TGI [5]: 7.57 µM; TGI [6]: 4.11 µM; TGI [7]: 3.48 µM; TGI [8]: 2.01 µM; TGI [9]: 3.59 µM; TGI [10]: 24.1 µM; TGI [11]: 7.88 µM; TGI [12]: 3.92 µM; TGI [13]: 3.49 µM; TGI [14]: 3.31 µM; TGI [15]: 3.4 µM; TGI [16]: 3.89 µM; TGI [17]: 3.61 µM; TGI [18]: 5.21 µM; TGI [19]: 4.57 µM; TGI [20]: 5.39 µM; TGI [21]: 4.85 µM; TGI [22]: 3.1 µM; TGI [23]: 5.4 µM; TGI [24]: 10.4 µM; TGI [25]: 3.58 µM; TGI [26]: 47.4 µM; TGI [27]: > 100 µM; TGI [28]: > 100 µM; TGI [29]: 4.04 µM; TGI [30]: 5.36 µM; TGI [31]: > 100 µM

Q: Which results are given for `CCCCN(CCCC)CCC(O)c1cc2ccc(C(F)(F)F)cc2c2cc(C(F)(F)F)ccc12` (stereo not given)?
A: GI50 [32]: 1.62 µM; TGI [32]: 3.33 µM; GI50 [33]: 2.94 µM; TGI [33]: 12.6 µM; GI50 [1]: 1.59 µM; TGI [1]: 3.04 µM; GI50 [2]: 1.44 µM; TGI [2]: 3.42 µM; GI50 [34]: 1.49 µM; TGI [34]: 4.26 µM; GI50 [35]: 3.98 µM; TGI [35]: 15.3 µM; GI50 [3]: 3.92 µM; TGI [3]: 15.3 µM; GI50 [36]: 2.89 µM; TGI [36]: 7.55 µM; GI50 [37]: 1.79 µM; TGI [37]: 3.75 µM; GI50 [4]: 1.55 µM; TGI [4]: 4.62 µM; GI50 [38]: 1.66 µM; TGI [38]: 3.63 µM; GI50 [5]: 3.5 µM; TGI [5]: 13.1 µM; GI50 [39]: 2.97 µM; TGI [39]: 12.8 µM; GI50 [6]: 2.34 µM; TGI [6]: 5.51 µM; GI50 [7]: 1.62 µM; TGI [7]: 3.74 µM; GI50 [8]: 2.67 µM; TGI [8]: 6.66 µM; GI50 [40]: 1.84 µM; TGI [40]: 4.09 µM; GI50 [41]: 2.2 µM; TGI [41]: 5.68 µM; GI50 [9]: 2.08 µM; TGI [9]: 4.58 µM; GI50 [10]: 2.02 µM; TGI [10]: 5.86 µM; GI50 [11]: 9.3 µM; TGI [11]: 26.8 µM; GI50 [42]: 2.52 µM; TGI [42]: 9.67 µM; GI50 [12]: 1.76 µM; TGI [12]: 3.15 µM; GI50 [43]: 3.84 µM; TGI [43]: 14.6 µM; GI50 [44]: 1.55 µM; TGI [44]: 3.2 µM; GI50 [45]: 2.15 µM; TGI [45]: 7.29 µM; GI50 [13]: 1.79 µM; TGI [13]: 3.54 µM; GI50 [14]: 3.47 µM; TGI [14]: 14.5 µM; GI50 [15]: 1.92 µM; TGI [15]: 4.25 µM; GI50 [16]: 2.49 µM; TGI [16]: 6.53 µM; GI50 [46]: 2.21 µM; TGI [46]: 4.23 µM; GI50 [17]: 1.61 µM; TGI [17]: 6.41 µM; GI50 [18]: 2.08 µM; TGI [18]: 6.81 µM; GI50 [47]: 3.09 µM; TGI [47]: 12.9 µM; GI50 [19]: 4.98 µM; TGI [19]: 18.3 µM; GI50 [20]: 6.15 µM; TGI [20]: 18.7 µM; GI50 [21]: 2.53 µM; TGI [21]: 4.51 µM; GI50 [48]: 1.56 µM; TGI [48]: 3.16 µM; GI50 [49]: 2.04 µM; TGI [49]: 5.44 µM; GI50 [22]: 2.13 µM; TGI [22]: 4.59 µM; GI50 [50]: 2.28 µM; TGI [50]: 6.17 µM; GI50 [51]: 2.69 µM; TGI [51]: 11.9 µM; GI50 [23]: 1.33 µM; TGI [23]: 3.16 µM; GI50 [52]: 2.96 µM; TGI [52]: 8.96 µM; GI50 [24]: 2.93 µM; TGI [24]: 9.24 µM; GI50 [25]: 2.15 µM; TGI [25]: 5.96 µM; GI50 [53]: 2.61 µM; TGI [53]: 9.01 µM; GI50 [26]: 2.06 µM; TGI [26]: 5.59 µM; GI50 [27]: 2 µM; TGI [27]: 4.41 µM; GI50 [28]: 1.76 µM; TGI [28]: 5.13 µM; GI50 [29]: 2.28 µM; TGI [29]: 4.62 µM; GI50 [30]: 5.18 µM; TGI [30]: 18 µM; GI50 [54]: 3.12 µM; TGI [54]: 12.1 µM; GI50 [55]: 1.82 µM; TGI [55]: 3.77 µM; GI50 [56]: 2.88 µM; TGI [56]: 10.5 µM; GI50 [31]: 3.46 µM; TGI [31]: 15 µM; GI50 [57]: 1.89 µM; TGI [57]: 12.4 µM

Reference: PubChem BioAssay (NCI)
